This note sets out measurements from patent publication US5310745A, “Antiviral compounds” (priority 1992, dated 1994).

Common to all, as to assay type: cell-based
The test system of data set [1] is Sheep choroid plexus (SCP) cells. The data set can be described thus: Toxicity of compounds in control wells without virus, graded morphologically. The procedure:
(§1) Sheep choroid plexus (SCP) cells were obtained from American Type Culture Collection (ATCC) catalogue number CRL 1700 and were routinely passaged in vitro in Dulbecco's Modified Eagles (DME) medium supplemented with 20% fetal bovine serum (FBS). SCP cells were passaged once per week at a 1:2 or 1:3 split ratio. Visna was titrated by plaque assay in six-well plates. Virus pools were stored at -70° C.
(§2) SCP cells were cultured in 6-well plates to confluence. Wells were washed two times with serum free Minimal Essential Medium (MEM) to remove FBS. 0.2 ml of virus was added per well in MEM supplemented with 4 mM glutamine and gentamycin. After 1 hour adsorption, the virus was aspirated from each well. The appropriate concentration of each compound in 5 ml of Medium 199 (M-199) supplemented With 2% lamb serum, 4 mM glutamine, 0.5% agarose and gentamycin was added to each well. Cultures were incubated at 37° C. in a humidified 5% CO2 incubator for 3-4 weeks. To terminate the test: cultures were fixed in 10% formalin, the agar removed, the monolayers stained with 1% crystal violet and plaques counted. Each compound concentration was run in triplicate. […] 0 is no toxicity observed while 4 is total lysing of the cell monolayer.

In another data set the test system is visna virus. The data set can be described thus: Plaque reduction assay, inhibition of visna virus in vitro. To be noted: for Antiviral Activity: Table 1; for inhibition at 100 µM / inhibition at 1000 µM / inhibition at 10 µM / inhibition at 1 µM: Visna-maedi virus; for inhibition at 100 µM / inhibition at 1000 µM / % Plaque Reduction / inhibition at 10 µM / inhibition at 1 µM: Table 2; for inhibition at 1 µM: 0.001 mM. The arrangement: key to Antiviral Activity: A: active compound; I: inactive compound.
Excerpt: Visna virus, a lentivirus genetically very similar to the AIDS virus, is pathogenic for sheep and goats. See Sonigo et al., Cell 42, 369-382 (1985); Haase, Nature 322, 130-136 (1986). Inhibition of visna virus replication in vitro as a useful model for human immunodeficiency virus (HIV) and its inhibition by test compounds has been described by Franket al., Antimicrobial Agents and Chemotherapy 31 (9), 1369-1374 (1987). The N-butyl derivative of 1,5-dideoxy-1,5-imino-D-glucitol, also referred to as n-butyl-deoxynojirimycin (N-Bu-DNJ), was used as a control standard for comparison with various novel compounds of this invention.
Various compounds as prepared above were tested for inhibition of visna virus in vitro in a plaque reduction assay as follows:
as §1, §2
For orientation: In a plaque reduction assay, fewer plaques than in the control indicate reduced infectivity or spread.

The subject of data set [2] is Sheep choroid plexus (SCP) cells. In words: Toxicity of compounds in control wells without virus, graded morphologically. More on the design: key: 0: no toxicity observed; 4: total lysing of the cell monolayer. To be noted: graded 0 to 4, Table 2. The procedure:
as §1, §2

Setting [3] is: 0.03125 mM, 0 to 4 scale, Table 1.
Setting [4] is: 0.01 mM, graded 0 to 4, Table 2.

As for `CC(=O)OC[C@@H]1[C@@H](OC(C)=O)[C@H](OC(C)=O)[C@@H](OC(C)=O)CN1C` [Example 10, 1,5-(Methylimino)-1,5-dideoxy-D-glucitol, tetraacetate], the Toxicity in data set [1] (setting [3]) turned out to be 1; in data set [1] (0.0625 mM, 0 to 4 scale, Table 1), 2; in data set [1] (0.125 mM, 0 to 4 scale, Table 1) it was 3. Also, the “Antiviral Activity” value in the data set on visna virus (0.03125 mM), with visna virus (0.0625 mM) and in the data set on visna virus (0.125 mM) was “A” each time.

Take `CCCCCCN1C[C@H](OC(C)=O)[C@@H](OC(C)=O)[C@H](OC(C)=O)[C@H]1COC(C)=O` [Example 12, 1,5-(Hexylimino)-1,5-dideoxy-D-glucitol, tetraacetate]: the Toxicity in data set [1] (0.0075 mM, 0 to 4 scale, Table 1) amounted to 1; in data set [1] (0.0156 mM, 0 to 4 scale, Table 1) it was 1; in data set [1] (setting [3]), 2. Also, the “Antiviral Activity” value in the data set on visna virus (0.0075 mM), in the data set on visna virus (0.0156 mM) and in the data set with visna virus (0.03125 mM) was “A” each time.

Regarding `CC(=O)OC[C@@H]1[C@@H](OC(C)=O)[C@H](OC(C)=O)[C@@H](OC(C)=O)CN1C(=O)COc1ccccc1` [Example 25, 1,5-[(Phenoxymethyl)carbonylimino]-1,5-dideoxy-D-glucitol, tetraacetate], the Toxicity is given as 1 in data set [1] (0.1 mM, 0 to 4 scale, Table 1) and 2 in data set [1] (1.0 mM, 0 to 4 scale, Table 1). Moreover, the “Antiviral Activity” value in the data set on visna virus (0.1 mM) and in the data set with visna virus (1.0 mM) was “A” each time.

The inhibition is the drop in the measured response relative to a control, in per cent. On to `CCC(CC)CN1C[C@H](OC(C)=O)[C@@H](OC(C)=O)[C@H](OC(C)=O)[C@H]1COC(C)=O` [Example 27, 1,5-[(2-Ethylbutyl)imino]-1,5-dideoxy-D-glucitol, tetraacetate], for which the Toxicity turned out to be 3 in data set [1] (1.0 mM, graded 0 to 4, Table 2) and 0 in data set [2] (0.1 mM). Also, the inhibition at 100 µM in the data set on visna virus (0.1 mM) worked out at 12%. Further, the inhibition at 1000 µM with visna virus (1.0 mM) was determined as 65%.

As for `CCCCN1C[C@H](OC(C)=O)[C@@H](OC(C)=O)[C@H](O)[C@H]1CO` [Example 28, 1,5-(Butylimino)-1,5-dideoxy-D-glucitol, 2,3-diacetate], the Toxicity in data set [1] (0.1 mM, graded 0 to 4, Table 2) worked out at 2; in data set [2] (1.0 mM) it was 4. The same compound registered an inhibition at 100 µM in the data set with visna virus (0.1 mM) of 44%. Moreover, the inhibition at 1000 µM in the data set with visna virus (1.0 mM) amounted to 87%.

As for `CCCC(C)CN1C[C@H](OC(C)=O)[C@@H](OC(C)=O)[C@H](OC(C)=O)[C@H]1COC(C)=O` (stereo partly drawn) [Example 33, 1,5-[(2-Methylpentyl)imino]-1,5-dideoxy-D-glucitol, tetraacetate], the Toxicity in data set [1] (1.0 mM, graded 0 to 4, Table 2) stood at 3; in data set [2] (0.01 mM), 0; in data set [2] (0.1 mM), 0. Also, the “% Plaque Reduction” value in the data set on visna virus (0.01 mM) is reported as 21%; in the data set on visna virus (0.1 mM), 28%; in the data set with visna virus (1.0 mM), 63%.

As to `CC(=O)OC[C@@H]1[C@@H](OC(C)=O)[C@H](OC(C)=O)[C@@H](OC(C)=O)CN1C(=O)c1cccnc1` [Example 35, 1,5-[(3-Nicotinoyl)imino]-1,5-dideoxy-D-glucitol, tetraacetate], the Toxicity worked out at 1 in data set [1] (0.1 mM, graded 0 to 4, Table 2); 3 in data set [1] (1.0 mM, graded 0 to 4, Table 2); 0 in data set [2] (0.01 mM). In addition, in the data set on visna virus (0.01 mM), the inhibition at 10 µM was 10%. Besides, in the data set with visna virus (0.1 mM), the inhibition at 100 µM was found to be 90%. The same compound returned an inhibition at 1000 µM in the data set with visna virus (1.0 mM) of 94%.

Regarding `CC(=O)OC[C@@H]1[C@@H](OC(C)=O)[C@H](OC(C)=O)[C@@H](OC(C)=O)CN1C(=O)C=Cc1ccccc1` [Example 36, 1,5-(Cinnamoylimino)-1,5-dideoxy-D-glucitol, tetraacetate], the “% Plaque Reduction” value with visna virus (0.1 mM) and with visna virus (1.0 mM) was “Toxic” in each case. This compound showed an inhibition at 1 µM with visna virus of 42%. The inhibition at 10 µM in the data set on visna virus (0.01 mM) turned out to be 76%. The Toxicity in data set [2] (0.001 mM) came to 0; in data set [2] (0.01 mM), 0; in data set [2] (0.1 mM), 4; in data set [2] (1.0 mM), 4.

Take `CCCCN1C[C@H](OC(=O)CCC)[C@@H](OC(=O)CCC)[C@H](O)[C@H]1CO` [Example 38, 1,5-(Butylimino)-1,5-dideoxy-D-glucitol, 2,3-dibutyrate]: the Toxicity in data set [1] (0.1 mM, graded 0 to 4, Table 2) is given as 2; in data set [2] (0.001 mM), 0; in data set [2] (0.01 mM), 0; in data set [2] (1.0 mM) it was 4. The “% Plaque Reduction” value in the data set on visna virus (1.0 mM) was “Toxic”. The compound also registered an inhibition at 1 µM in the data set on visna virus of 47%. Moreover, at 10 µM the inhibition in the data set on visna virus (0.01 mM) was 54%. Moreover, in the data set on visna virus (0.1 mM), the inhibition at 100 µM turned out to be 80%.

`CC(C)C(=O)OC[C@@H]1[C@@H](OC(=O)C(C)C)[C@H](OC(=O)C(C)C)[C@@H](OC(=O)C(C)C)CN1C(=O)Cc1ccccc1` [Example 39, 1,5-(Phenylacetylimino)-1,5-dideoxy-D-glucitol, tetraisobutyrate]: the Toxicity in data set [1] (0.1 mM, graded 0 to 4, Table 2) came out at 1; in data set [1] (1.0 mM, graded 0 to 4, Table 2) it was 3; in data set [2] (0.01 mM), 0. This compound also yielded an inhibition at 10 µM in the data set on visna virus (0.01 mM) of 19%. In the data set with visna virus (0.1 mM), the inhibition at 100 µM was 56%. Also, the inhibition at 1000 µM in the data set with visna virus (1.0 mM) came to 95%.

Regarding `CC(=O)OC[C@@H]1[C@@H](OC(C)=O)[C@H](OC(C)=O)[C@@H](OC(C)=O)CN1C(=O)Cc1ccc(Cl)cc1` [Example 40, 1,5-[(4-Chlorophenyl)acetylimino]-1,5-dideoxy-D-glucitol, tetraacetate], the Toxicity in data set [1] (setting [4]) came out at 1; in data set [1] (0.1 mM, graded 0 to 4, Table 2) it was 3; in data set [2] (0.001 mM), 0; in data set [2] (1.0 mM), 4. The same compound had an inhibition at 1 µM in the data set on visna virus of 29%. In addition, the inhibition at 10 µM with visna virus (0.01 mM) was 46%.

Take `CCCCN1C[C@H](OC(=O)CCC(C)C)[C@@H](OC(=O)CCC(C)C)[C@H](OC(=O)CCC(C)C)[C@H]1COC(=O)CCC(C)C` [Example 49, 1,5-(Butylimino)-1,5-dideoxy-D-glucitol, tetra(4-methylpentanoate)]: 1000 µM produced 98% inhibition with visna virus (1.0 mM). In data set [2] (1.0 mM), this compound showed a Toxicity of 0.

Take `CCCC(=O)OC[C@@H]1[C@@H](OC(=O)CCC)[C@H](OC(=O)CCC)[C@@H](OC(=O)CCC)CN1C(=O)c1ccccc1OC(C)=O` [Example 52, 1,5-[[2-(Acetyloxy)benzoyl]imino]-1,5-dideoxy-D-glucitol, tetrabutanoate]: the “% Plaque Reduction” value in the data set with visna virus (1.0 mM) is “Toxic”. This compound returned an inhibition at 1 µM in the data set on visna virus of 16%. The compound also gave an inhibition at 10 µM in the data set on visna virus (0.01 mM) of 37%. This compound also gave an inhibition at 100 µM with visna virus (0.1 mM) of 98%. The Toxicity was determined as 0 in data set [2] (0.001 mM), 0 in data set [2] (0.01 mM), 0 in data set [2] (0.1 mM) and 4 in data set [2] (1.0 mM).

As to `CCCC(=O)OC[C@@H]1[C@@H](OC(=O)CCC)[C@H](OC(=O)CCC)[C@@H](OC(=O)CCC)CN1C(=O)Cc1cccs1` [Example 55, 1,5-Dideoxy-1,5-[[1-oxo-2-(2-thienyl)ethyl]imino]-D-glucitol, tetrabutanoate], the “% Plaque Reduction” value with visna virus (1.0 mM) is on record as “Toxic”. In the data set with visna virus, the inhibition at 1 µM amounted to 11%. Besides, in the data set on visna virus (0.01 mM), testing at 10 µM gave an inhibition of 37%. This compound returned an inhibition at 100 µM in the data set with visna virus (0.1 mM) of 95%. In addition, the Toxicity in data set [2] (0.001 mM) was determined as 0; in data set [2] (0.01 mM) it was 0; in data set [2] (0.1 mM), 0; in data set [2] (1.0 mM) it was 4.

Turning to `CCCCN1C[C@H](OC(=O)CCC2CCCC2)[C@@H](OC(=O)CCC2CCCC2)[C@H](OC(=O)CCC2CCCC2)[C@H]1COC(=O)CCC1CCCC1` [Example 56, 1,5-(Butylimino)-1,5-dideoxy-D-glucitol, tetra(3-cyclopentylpropanoate)], the inhibition at 10 µM in the data set on visna virus (0.01 mM) amounted to 13%. Besides, the inhibition at 100 µM with visna virus (0.1 mM) turned out to be 16%. Testing at 1000 µM in the data set on visna virus (1.0 mM) gave an inhibition of 56%. The Toxicity in data set [2] (0.01 mM), in data set [2] (0.1 mM) and in data set [2] (1.0 mM) was 0 throughout.

For the compound `CCCC(=O)OC[C@@H]1[C@@H](OC(=O)CCC)[C@H](OC(=O)CCC)[C@@H](OC(=O)CCC)CN1CCCCCCCC(F)(F)F` [Example 62, 1,5-(8,8,8-Trifluorooctylimino)-1,5-dideoxy-D-glucitol, tetrabutyrate], the Toxicity amounted to 1 in data set [1] (setting [4]); 1 in data set [1] (0.1 mM, graded 0 to 4, Table 2); 2 in data set [1] (1.0 mM, graded 0 to 4, Table 2). The inhibition at 10 µM with visna virus (0.01 mM) is 49%. In addition, in the data set with visna virus (0.1 mM), 100 µM produced 91% inhibition. In the data set with visna virus (1.0 mM), 1000 µM produced 97% inhibition.
